From article PMC4088988 (Bioorganic & medicinal chemistry, 2013)
Entries after “also recorded” stand apart in the source; their conditions may differ.

What was measured:
[1] = tested on: glucocorticoid receptor (GR); conditions: cited from earlier work
[2] = tested on: mineralocorticoid receptor (MR); conditions: cited from earlier work
[3] = molecular target: T1, GR (Homo sapiens, UniProt P04150); assay: GR Nuclear Translocation PathHunter assay; format: cell-based; conditions: for Rank GR translocation: rank among tested compounds; for GR translocation activity: Fig. 3
T1 sequence (P04150 1-777): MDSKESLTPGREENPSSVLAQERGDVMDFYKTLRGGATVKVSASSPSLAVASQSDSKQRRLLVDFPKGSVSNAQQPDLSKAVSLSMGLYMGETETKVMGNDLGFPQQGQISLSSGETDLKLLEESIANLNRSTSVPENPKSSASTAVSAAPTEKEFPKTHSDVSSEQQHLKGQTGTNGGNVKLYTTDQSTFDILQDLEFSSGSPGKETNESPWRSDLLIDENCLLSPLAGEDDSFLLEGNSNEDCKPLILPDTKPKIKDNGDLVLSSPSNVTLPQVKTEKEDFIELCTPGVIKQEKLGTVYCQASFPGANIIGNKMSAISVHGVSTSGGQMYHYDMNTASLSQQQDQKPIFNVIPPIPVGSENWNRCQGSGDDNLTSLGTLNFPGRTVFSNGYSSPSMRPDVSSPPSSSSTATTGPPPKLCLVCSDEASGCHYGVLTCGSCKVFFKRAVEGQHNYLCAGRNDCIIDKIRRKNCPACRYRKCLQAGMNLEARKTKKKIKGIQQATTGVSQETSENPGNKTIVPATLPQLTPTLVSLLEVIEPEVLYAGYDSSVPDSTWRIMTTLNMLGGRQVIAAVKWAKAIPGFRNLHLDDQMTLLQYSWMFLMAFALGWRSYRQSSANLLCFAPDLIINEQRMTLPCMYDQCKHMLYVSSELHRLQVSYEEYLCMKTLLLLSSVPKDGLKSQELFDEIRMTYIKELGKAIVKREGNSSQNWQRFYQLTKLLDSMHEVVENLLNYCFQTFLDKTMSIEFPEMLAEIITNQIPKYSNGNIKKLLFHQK

[4] = Pharmacokinetics in Sprague–Dawley rats, IV and PO; format: in vivo
[5] = tested on: glucocorticoid response element (GRE); assay: Transactivation assay, GRE-luciferase reporter in HEK-293 cells; format: cell-based; conditions: HEK-293 GRE-luciferase, 0.01 to 100 μg/ml, 6 h
[6] = tested on: CYP3A4; assay: CYP3A4 induction in human hepatocytes; format: in vitro ADME; conditions: three human hepatocyte donors, 1, 10, 100 μM, % of positive control rifampin
[7] = Metabolite identification in human hepatocytes; format: in vitro ADME; conditions: 10 μM, 2 and 4 h
[8] = Metabolite identification in rat hepatocytes; format: in vitro ADME; conditions: 10 μM, 2 and 4 h
[9] = Metabolic stability in rat liver microsomes; format: in vitro ADME; conditions: 60 min, NADPH
[10] = Ames test; conditions: Positive/negative
[11] = Micronucleus test; conditions: Positive/negative
[12] = Pharmacokinetics in CD1 mice, IV and PO; format: in vivo; conditions: for AUC0, total, unbound / Cmax, total, unbound: Table 4
[13] = Metabolite identification in dog hepatocytes; format: in vitro ADME; conditions: 10 μM, 2 and 4 h
[14] = tested on: NF-κB; format: cell-based; conditions: C2C12 myoblasts and myotubes, Fig. 2/3
[15] = Metabolite identification in monkey hepatocytes; format: in vitro ADME; conditions: 10 μM, 2 and 4 h
[16] = tested on: CYP1A2; assay: CYP1A2 induction in human hepatocytes; format: in vitro ADME; conditions: three human hepatocyte donors, 1, 10, 100 μM, relative to omeprazole
[17] = Pharmacokinetics in beagle dogs, IV and PO; format: in vivo
[18] = single administration, cited from earlier work
[19] = CD1 mice, IV 10 mg/kg, 10 mg/kg

C[C@]12CCC(=O)C=C1CC[C@@H]1C2=CC[C@@]2(C)[C@H]1CC[C@]2(O)C(=O)CO [VBP1]
binding to the GR [1]: relatively high affinity binding | binding to the MR [2]: relatively high affinity binding | Rank GR translocation [3]: 6

C[C@@H]1C[C@H]2[C@@H]3CCC4=CC(=O)C=C[C@]4(C)C3=CC[C@]2(C)[C@@]1(O)C(=O)CO [VBP15]
AUC0, total, unbound ([4]; Rat 10 mpk IV): 8339 (IV) h ng/mL | AUC0, total, unbound ([4]; Rat 50 mpk PO): 19937 (PO) h ng/mL | Cmax, total, unbound ([4]; Rat 50 mpk PO, 50 mg/kg): 2543 (PO) ng/mL | GRE-dependent gene transcription (luciferase) [5]: lack of transactivation properties; also recorded: lacks GRE-mediated transcriptional activity | CYP3A4 induction [6]: 24–42% | number of metabolites identified [7]: Four | number of metabolites identified [8]: 5 | Stability–microsomes, remaining at 1 h [9]: Rat = 35.4% | Ames test [10]: Negative | Micronucleus test [11]: Negative | Clobs [12, 19]: 18.8 (IV) mL/min/kg | Vssobs [12, 19]: 0.757 (IV) L/kg | AUC0, total, unbound ([12]; Mouse 10 mpk IV): 8842 (IV) h ng/mL | Cmax, total, unbound ([12]; Mouse 10 mpk IV): 11167 (IV) ng/mL | AUC0, total, unbound ([12]; Mouse 50 mpk PO): 32932 (PO) h ng/mL | Cmax, total, unbound ([12]; Mouse 50 mpk PO, 50 mg/kg): 6787 (PO) ng/mL | number of metabolites identified [13]: 3 | NF-κB inhibition activity [14]: high activities | number of metabolites identified [15]: Four | GR translocation activity [3]: high activities | CYP1A2 induction [16]: no induction | AUC0, total, unbound ([17]; Dog 10 mpk IV): 6791 (IV) h ng/mL | AUC0, total, unbound ([17]; Dog 30 mpk PO): 10844 (PO) h ng/mL | Cmax, total, unbound ([17]; Dog 30 mpk PO, 30 mg/kg): 814 (PO) ng/mL

CC(=O)OCC(=O)[C@H]1[C@H](C)C[C@H]2[C@@H]3CCC4=CC(=O)C=C[C@]4(C)C3=CC[C@@]21C [VBP7]
NF-κB inhibition activity [14]: high activities | GR translocation activity [3]: high activities | Rank GR translocation [3]: 7

C[C@]12C=CC(=O)C=C1CC[C@@H]1[C@@H]2C(=O)C[C@@]2(C)[C@H]1CC[C@]2(O)C(=O)CO [Prednisone, reference compound]
GRE-dependent gene transcription (luciferase) [5]: induced luciferase expression

CC(=O)OCC(=O)[C@@]1(O)CC[C@@H]2[C@H]3CCC4=CC(=O)CC[C@]4(C)C3=CC[C@@]21C [anecortave acetate, [2-[(8R,10S,13S,14R,17R)-17-hydroxy-10,13-dimethyl-3-oxo-2,6,7,8,12,14,15,16-octahydro-1H-cyclopenta[a]phenanthren-17-yl]-2-oxo-ethyl] acetate, reference compound]
binding to the GR [1]: relatively high affinity binding | reduction in IOP ([18]; best dose): 31% | mean duration of IOP benefit [18]: 56 days | binding to the MR [2]: relatively high affinity binding

C[C@]12C=CC(=O)C=C1CC[C@@H]1[C@@H]2[C@@H](O)C[C@@]2(C)[C@H]1CC[C@]2(O)C(=O)CO [prednisolone, reference compound]
GRE-dependent gene transcription (luciferase) [5]: significant dose-dependent response

C[C@@H]1C[C@H]2[C@@H]3CCC4=CC(=O)C=C[C@]4(C)C3=CC[C@]2(C)[C@H]1C(=O)CO [VBP6]
AUC/D ([12]; CD1 mice, IV 10 mg/kg): 345 ng·h/mL | AUC/D ([12]; CD1 mice, PO 50 mg/kg, 30% Labrafil): 440 ng·h/mL | NF-κB inhibition activity [14]: high activities | GR translocation activity [3]: high activities | Rank GR translocation [3]: 4
